Reference: a melting point compilation (Tetko et al.; mined from patent text by program, amines drawn as free bases though some values may be those of a salt)

Row | Structure (SMILES) | melting point [°C]
1 | COc1ccccc1COc1ccc2c(c1)C=C(C(=O)O)CCS2(=O)=O | 168 to 171
2 | COc1ccc2c(c1)c(CC(=O)OCC(=O)O)c(C)n2C(=O)c1ccccc1C(F)(F)F | 121 to 122
3 | CC1(C)CCc2c(ccc3c2C(=O)C(Cl)=CC3=O)O1 | 140 to 142
4 | C=C(C)CNC(=O)N1CC(Oc2ccc(C(F)(F)F)cc2)C1 | 101 to 102
5 | Cn1ncc2c(=O)n3c(nc21)SCC3(C)C | 188
6 | CSc1nccc(CC(=O)c2ccc(Cl)cc2Cl)n1 | 105 to 107
7 | CC(=O)OC1COC(SCCCCCCOC2CCC3(C)C(=CCC4C3CCC3(C)C(C(C)CCCC(C)C)CCC43)C2)C(OC(C)=O)C1OC(C)=O (stereo not drawn) | 106 to 108
8 | CCCCCCCCCCCCNC=C1C(=O)ON=C1C | 57
9 | Oc1ccc(Nc2nc(NCc3ccco3)nc(Nc3ccc4[nH]ccc4c3)n2)cc1 | 258 to 260
10 | CCCCCCCCCCCCCCCCCC(=O)N[C@@H](C)C(=O)OC | 84
11 | C#CCC(CC#C)NC(=O)C(F)(F)F | 55 to 57
12 | CC(C)(C)OC(=O)NCC1(C(=O)O)CC1 | 104 to 106
13 | CC(C)(C)C(=O)Oc1n[nH]c(=O)c2nc3cc(Cl)ccc3c(O)c12 | 352 to 357
14 | O=C(O)Cc1cc(C(=O)Cc2ccccc2Cl)ccc1O | 230
15 | O=C(CNC(=O)c1ccc(Cl)cc1)c1ccsc1 | 160 to 161
16 | COC(=O)CCc1cc2ccc(C(F)(F)F)cc2[nH]1 | 108 to 110
17 | COc1ccnc(CCc2nc3cc(-c4ccc(S(=O)(=O)N(C)C)cc4)cnc3[nH]2)c1 | 217 to 218
18 | CC(C)(C)OC(=O)Nc1ccc(-c2cccc(F)c2)cc1N | 125 to 128
19 | CN1Cc2c(-c3noc(CN4CCCC(C)(C)C4)n3)ncn2-c2ccccc2C1=O | 167 to 168
20 | Cc1oc2c(-n3c(=O)cc(C(F)(F)F)n(C)c3=O)c(F)cc(Cl)c2c1CC(N)=O | 127 to 129
21 | CCOc1cc([C@@H](CS(C)(=O)=O)N2Cc3cccc(NCC(C)C)c3C2=O)ccc1OC | 122 to 124
22 | Cc1noc(C)c1S(=O)(=O)n1nnc2cc3c(cc21)OC(F)(F)O3 | 120 to 123
23 | CCCc1c(C(C)C)cc(C(C)C)c(C(C)O)c1-c1ccc(F)cc1 (single isomer, unassigned; (+)) | 114 to 116
24 | CC(=O)Nc1ccc(-c2ccc(CCCC(=O)O)cc2)cc1Br | 155 to 156

Row | Structure (SMILES) | melting point [°C]
25 | CSC(=C[N+](=O)[O-])N1CCCCC1 | 65 to 67
26 | CC=C1OC(=O)c2c(OC)cccc21 | 106 to 109
27 | Cn1cc(C(=O)O)c(=O)c2cc(F)c(F)cc21 | 284 to 287
28 | COc1ccc2c(c1)CCc1c(Cl)cccc1S2 | 73 to 74
29 | CC(=O)NCCCCC(=O)OC1c2ccccc2C(=O)N1c1ccc2ccc(Cl)nc2n1 (stereo not drawn) | 185
30 | CC(C)(C)c1ccc(-c2[nH]c3nccnc3c2CCCO)cc1 | 187 to 189
31 | COc1cc(C)nc(NC(=O)NS(=O)(=O)c2ccccc2C(O)CF)n1 (stereo not drawn) | 153 to 155
32 | O=S(=O)(O)CCCNc1cccc(O)c1 | > 250
33 | CC(C)Oc1c(C(=O)Nc2nnn[nH]2)[nH]c(Br)c1Br | 194 to 196
34 | CC(=O)Oc1c(C)cc(C(=O)c2ccc(C(=O)c3cc(C)c(OC(C)=O)c(C)c3)cc2)cc1C | 255 to 256
35 | COc1cc2c(cc1-c1cccnc1)-c1c(-c3cccs3)c3c(n1CC2)C(=O)N(C(C)C)CCN(C(=O)OC(C)(C)C)C3 | 207 to 208
36 | CCN(CCCC1CCN(CC(=O)N2c3ccccc3C(=O)Nc3cccnc32)CC1)C(=O)C(C)(C)CC | 136 to 138
37 | Cc1ccc(-c2ccc3c(c2)C=C(C(=O)Nc2ccc(CCl)cc2)CCO3)cc1 | 164
38 | COc1cc(C(C)=O)ccc1OCCCN1CCC(c2noc3ccc(F)cc23)CC1 | 103 to 105
39 | COC[C@H](Cc1ccccc1)NC(=O)[C@@H](CC(=O)O)n1ccc(-c2ccc(-c3ccccc3)cc2)c1 | 247
40 | CC#CCOc1cc(/C=C/C(=O)O)ccc1OC(F)F | 206 to 208
41 | CC1=NC(c2ccc(F)cc2F)c2ccccc2CN1C (single isomer, unassigned; (+)) | 137 to 138
42 | N=C(NO)c1ccc(-c2ccc(-c3ccc(C(=N)NO)o3)cc2)cc1 | 229 to 230
43 | COc1ccc2[nH]c(=O)nc(C)c2c1OC | 248 to 249
44 | COc1c(C)c2c(c(O)c1C/C=C(\C)C(O)C(C)(C)C(=O)O)C(=O)OC2 (stereo not drawn) | 180 to 181
45 | NCc1cccc2ccc(C(=O)O)cc12 | 223 to 225
46 | COc1cccc(OC)c1C=CC(=O)c1c(OC)cccc1OC | 179 to 180
47 | COc1ccc(Br)c2c1-c1ccc(NS(C)(=O)=O)cc1C(c1ccccc1)O2 (stereo not drawn) | 122 to 123
48 | COC(=O)c1nn(Cc2ccc(Cl)c(Cl)c2)c(=O)c2cc(OC)ccc12 | 144 to 146
